Tests used:
[1] = molecular target: CYP2D6 (Homo sapiens, UniProt P10635); test: Compound 1 metabolism / metabolite formation by recombinant CYP2D6; format: in vitro ADME; parameters: purchased Gentest Corp. (Woburn, Mass.); host or cells: insect cells (microsomal preparation); conditions: recombinant CYP2D6, NADPH
Method: (§1) The metabolism of Compound 1 was determined by the disappearance of Compound 1 or the appearance of Compound 1 metabolites in reaction mixtures as compared to respective controls. Compound 1 was incubated in the reconstituted in vitro reaction systems containing pooled human liver S9 fractions, microsomal preparations, or recombinant hepatic CYP forms, including CYP1A2, CYP2C9, CYP2C19, CYP2D6, CYP2E1, and CYP3A4. The reaction mixture (total volume of 250 μL) contained 0.5 mg of liver microsomal protein, 50 or 25 pmol of recombinant CYP, and Compound 1 (50-80 μM) in 50 mM Tris buffer containing 15 mM MgCl2 (pH 7.4). After incubating at 37° C. with gentle shaking for 1 minute, the reaction was initiated by adding 25 μL of NADPH solution (20 mg/mL), and was carried out for 1 hour. The reaction was terminated by quickly cooling the test tube on ice, followed by the addition of an equal volume of 100% methanol. The samples were centrifuged in a desktop centrifuge at 14,000 rpm for 5 minutes, and the supernatants were filtered through syringe filters (13 mm, 0.45 μm). The filtrates were subjected to analysis using LC/MS (ion trap) or LC/MS/MS.
(§2) 1. LC/MS (LCQ ion trap mass spectrometer, Finnigan Corp., San Jose, Calif.): Hewlett Packard 1100 HPLC system (Waldbronn, Germany) consisted of a binary pump, an autosampler, a column compartment unit, and an online variable wavelength UV detector (VWD). The detector was monitored at 270 nm, which is the UVmax of Compound 1 predetermined by scanning between 225-400 nm using a photodiode array detector (PDA). The metabolites were separated on a Hewlett Packard Eclipse C18 column (150×2.1 mm). The mobile phases were 10 nmM ammonium acetate at pH 4.8 (A) and acetonitrile (B). The gradient (B) was 10% (0-6 minutes), 22% (12-22 minutes), 90% (25-30 minutes), and 10% (31 minutes and after). The flow rate was 0.25 mL/minute. Software Navigator (Version 1.2, Finnigan Corp.) was used to control the HPLC and MS and to acquire the data. […]

[2] = tested on: pooled human liver microsomal preparations (HLM); test: Compound 1 metabolism / metabolite formation in reconstituted system with pooled HLM; format: in vitro ADME; conditions: estimated by UV absorbance at 270 nm, metabolite formed or Compound 1 left after 1 hour with NADPH
Method: as §1
1. […] The detector was monitored at 270 nm, which is the UVmax of Compound 1 predetermined by scanning between 225-400 nm using a photodiode array detector (PDA). […]

[3] = molecular target: CYP3A4 (Homo sapiens, UniProt P08684); test: Compound 1 metabolism / metabolite formation by recombinant CYP3A4; format: in vitro ADME; parameters: purchased Gentest Corp. (Woburn, Mass.); host or cells: insect cells (microsomal preparation); conditions: recombinant CYP3A4; estimated by UV absorbance at 270 nm; metabolite formed or Compound 1 left after 1 hour with NADPH
Method: as §1, §2

[4] = molecular target: CYP2C19 (Homo sapiens, UniProt P33261); test: Compound 1 metabolism / metabolite formation by recombinant CYP2C19; format: in vitro ADME; parameters: purchased Gentest Corp. (Woburn, Mass.); host or cells: insect cells (microsomal preparation)
Method: as §1
1. LC/MS (LCQ ion trap mass spectrometer, Finnigan Corp., San Jose, Calif.): Hewlett Packard 1100 HPLC system (Waldbronn, Germany) consisted of a binary pump, an autosampler, a column compartment unit, and an online variable wavelength UV detector (VWD). The detector was monitored at 270 nm, which is the UVmax of Compound 1 predetermined by scanning between 225-400 nm using a photodiode array detector (PDA). The metabolites were separated on a Hewlett Packard Eclipse C18 column (150×2.1 mm). The mobile phases were 10 nmM ammonium acetate at pH 4.8 (A) and acetonitrile (B). The gradient (B) was 10% (0-6 minutes), 22% (12-22 minutes), 90% (25-30 minutes), and 10% (31 minutes and after). The flow rate was 0.25 mL/minute. Software Navigator (Version 1.2, Finnigan Corp.) was used to control the HPLC and MS and to acquire the data. The MS was operated at positive electrospray ionization (ESI) with 5.2 kV ionization potential and 220° C. heated capillary temperature. The product ion spectra were generated under 24V collision energy, which was optimized for the fragmentation of Compound 1.
2. LC/MS/MS (SCIEX API2000 triple quadrupole mass spectrometer, PE Biosystem, Foster City, Calif.): The same HPLC system described above was coupled with a tandem mass spectrometer. The metabolites were separated on a Sulpelco Discovery C18 column (150×2.1 mm), and the mobile phase described previously was run at 1.0 mL/min with a 1:10 split. The gradient (B) was 20% (0-6 minutes), 60% (14-18 minutes), 95% (20-24 minutes), and 20% (25 minutes and after). The operation of the HPLC and the MS/MS was controlled by MacChrom (Version 1.6, PE Biosystem). […]

[5] = tested on: CYP1A1/2; test: CYP induction in primary human hepatocytes, Western immunoblotting: CYP1A1/2; format: cell-based; conditions: TCDD 0.4 μM, 72 hours
Method: Upon receiving a primary culture of human hepatocytes in 6-well plates, the culture medium containing streptomycin/penicillin was refreshed (2 ml/well). […] Compound 1 stock solution was added to the culture medium at a 1:400 ratio (v/v). The culture medium and testing compounds were replenished every 24 hours.
At the end of the treatment, the cells were harvested into 1 mL of phosphate-buffered saline (PBS) after washing twice. The cells were precipitated by centrifugation, and were resuspended in PBS (approximately 50 μL). The sample preparation, after mixing with […] of Laemmli buffer (62.5 mM Tris-HCl containing 2% SDS, 25% glycerol, and 0.01% bromophenol, pH 6.8) and being rocked for 2-4 hours, was mixed with 10 μL of 2-mercaptoethanol, and heated at 90° C. for 10 minutes before electrophoresis.
Proteins were resolved in a 12% SDS-PAGE gel using a mini gel apparatus at a constant voltage ([…]) for 70-80 minutes, and transferred onto a polyvinylidene difluoride (PVDF) membrane using a membrane-transferring unit at a constant voltage ([…]) for 60 minutes. The membrane was blocked by 5% non-fat dried milk (NFDM) blotting buffer (PBS containing 0.05% Tween 20) at 4° C. overnight. […] CYP proteins were detected by […] using an X-ray developer.

CYP2C19, sequence (P33261 whole entry): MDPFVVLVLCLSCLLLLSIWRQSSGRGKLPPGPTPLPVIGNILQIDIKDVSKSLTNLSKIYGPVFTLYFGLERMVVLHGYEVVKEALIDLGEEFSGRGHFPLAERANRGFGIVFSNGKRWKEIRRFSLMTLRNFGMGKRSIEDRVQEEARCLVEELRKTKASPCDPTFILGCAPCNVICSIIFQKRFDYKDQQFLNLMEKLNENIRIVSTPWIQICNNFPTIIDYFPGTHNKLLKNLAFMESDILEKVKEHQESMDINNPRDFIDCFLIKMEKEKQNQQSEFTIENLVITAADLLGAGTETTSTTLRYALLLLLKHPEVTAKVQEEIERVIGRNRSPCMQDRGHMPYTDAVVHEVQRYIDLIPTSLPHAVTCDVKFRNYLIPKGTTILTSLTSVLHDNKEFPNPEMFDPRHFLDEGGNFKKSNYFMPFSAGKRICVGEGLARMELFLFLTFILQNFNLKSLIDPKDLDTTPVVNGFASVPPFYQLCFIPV
CYP3A4, sequence (P08684 whole entry): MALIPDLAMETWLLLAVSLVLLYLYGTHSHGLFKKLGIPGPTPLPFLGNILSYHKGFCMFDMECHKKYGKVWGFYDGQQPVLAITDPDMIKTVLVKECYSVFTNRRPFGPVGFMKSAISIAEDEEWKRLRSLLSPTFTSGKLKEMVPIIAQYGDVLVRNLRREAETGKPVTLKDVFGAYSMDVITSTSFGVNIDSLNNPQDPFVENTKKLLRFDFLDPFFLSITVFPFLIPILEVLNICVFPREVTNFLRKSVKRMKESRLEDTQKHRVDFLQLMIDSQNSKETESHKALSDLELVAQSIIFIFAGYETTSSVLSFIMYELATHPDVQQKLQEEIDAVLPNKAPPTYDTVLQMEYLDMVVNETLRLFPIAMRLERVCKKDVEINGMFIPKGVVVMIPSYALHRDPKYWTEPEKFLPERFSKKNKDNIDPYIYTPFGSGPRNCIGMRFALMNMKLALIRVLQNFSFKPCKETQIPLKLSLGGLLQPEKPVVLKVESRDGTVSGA
CYP2D6, sequence (P10635 whole entry): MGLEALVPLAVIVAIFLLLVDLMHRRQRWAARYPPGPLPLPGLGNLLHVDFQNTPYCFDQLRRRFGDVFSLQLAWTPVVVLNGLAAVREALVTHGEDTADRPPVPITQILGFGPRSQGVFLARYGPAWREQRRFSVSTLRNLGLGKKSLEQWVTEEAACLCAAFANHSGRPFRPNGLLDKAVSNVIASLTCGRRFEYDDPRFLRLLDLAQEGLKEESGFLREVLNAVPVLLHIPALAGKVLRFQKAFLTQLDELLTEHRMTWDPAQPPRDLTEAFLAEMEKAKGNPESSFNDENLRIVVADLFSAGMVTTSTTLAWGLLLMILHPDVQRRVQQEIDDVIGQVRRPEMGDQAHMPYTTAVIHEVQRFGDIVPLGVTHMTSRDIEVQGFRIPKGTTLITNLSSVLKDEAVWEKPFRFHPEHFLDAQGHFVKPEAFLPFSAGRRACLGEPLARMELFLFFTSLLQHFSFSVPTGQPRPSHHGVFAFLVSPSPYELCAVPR

SMILES | formation of the metabolite from Compound 1 by CYP2D6 (in words) [1] | Rel. Amount (%) [2] | Rel. Amount (%) [3] | formation of the metabolite from Compound 1 by CYP2C19 (in words) ([4]; recombinant CYP2C19, NADPH) | Rel. Amount (%) ([4]; recombinant CYP2C19, estimated by UV absorbance at 270 nm, metabolite formed or Compound 1 left after 1 hour with NADPH) | expression of CYP1A1/2 (Western immunoblotting), positive control [5]
CNC(=O)Cc1ccc2ccn(C3CCNCC3)c2c1 [Compound M4] | formed | 21% | 31% | formed | 20% | 
Clc1cc2c(cc1Cl)Oc1cc(Cl)c(Cl)cc1O2 [TCDD, 2,3,7,8-tetrachlorodibenzo-p-dioxin, reference compound] |  |  |  |  |  | elevated expressions

Reference: patent US20050033056A1, “Hydroxylated indole derivatives and uses thereof” (priority 2001, published 2005)
